Holding throughout (assay): Bliss excess, mean over the matrix (fraction); higher = more synergy
One experiment deals with U251 (Low Grade Glioma). An outline of the steps: (§1)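 Cell lines grown in DMEM/F12 or RPMI with 10% FBS were plated in 1536-well plates and held 24 hours at 37°C, 5% CO2 before 72 hours of exposure to two-drug dose matrices, with DMSO typically at 0.2%. CellTiter-Glo 2.0 luminescence gave viability, which was converted to inhibition. Vehicle wells were set to 0 and blank wells to 1. Combination Emax is the second-highest inhibition in the matrix, and Bliss excess is the observed combination effect minus the expected EA + EB − EA·EB, where EA and EB are the single-agent effects.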

Experiment [1] has as its system MOLT-16 (T-Lymphoblastic Leukemia). An outline of the steps:
as §1

The test system of experiment [2] is BFTC-905 (Bladder Carcinoma). An outline of the steps:
as §1

Experiment [3] has as its system SR (Other Blood Carcinomas). The method, boiled down: as §1
The test system of experiment [4] is KARPAS-45 (T-Lymphoblastic Leukemia). The method, boiled down:
as §1

The test system of experiment [5] is KCL-22 (Chronic Myelogenous Leukemia). The method, boiled down:
as §1

Experiment [6] has as its system P12-ICHIKAWA (T-Lymphoblastic Leukemia). The method, boiled down: as §1
Experiment [7] has as its system L-540 (Hodgkin's Lymphoma). The method, boiled down:
as §1

For experiment [8], the system named is GR-ST (B-Lymphoblastic Leukemia). An outline of the steps: as §1
Experiment [9] deals with EVSA-T (Breast Carcinoma). The method, boiled down:
as §1

Experiment [10] has as its system HL-60 (Acute Myeloid Leukemia). An outline of the steps: as §1
For experiment [11], the system named is MS751 (Cervical Carcinoma). An outline of the steps:
as §1

In experiment [12] the test system is K-562 (Chronic Myelogenous Leukemia). An outline of the steps:
as §1

In another experiment the test system is NCI-H2818 (Mesothelioma). The method, boiled down:
as §1

For a further experiment, the system named is ES8 (Ewing's Sarcoma). An outline of the steps: as §1
A further experiment concerns ES1 (Ewing's Sarcoma). The method, boiled down:
as §1

Experiment [13] deals with HDQ-P1 (Breast Carcinoma). The method, boiled down: as §1
The subject of experiment [14] is SW837 (Colorectal Carcinoma). An outline of the steps: as §1
For experiment [15], the system named is SU-DHL-8 (B-Cell Non-Hodgkin's Lymphoma). An outline of the steps:
as §1

The subject of the next experiment is WM-115 (Melanoma). An outline of the steps:
as §1

Molecules are shown by their SMILES.

We go through 6 molecules from the supplement of paper PMC11061612.

For `Cn1cnc2c(F)c(Nc3ccc(Br)cc3Cl)c(C(=O)NOCCO)cc21` [Selumetinib] + C=CCn1c(=O)c2cnc(Nc3ccc(N4CCN(C)CC4)cc3)nc2n1-c1cccc(C(C)(C)O)n1 [AZD1775] (first compound max 10 µM, partner max 1 µM), the Bliss excess in the experiment on U251 (Low Grade Glioma) was -0.0365; in experiment [1], 0.0252; in experiment [2], -0.0654; in experiment [3], -0.0132; in experiment [4], 0.0001; in [5], 0.0242. Moreover, the Bliss excess in [6] is 0.0595; in experiment [7], -0.0374; in experiment [8] it was -0.0368; in [9], -0.015; in [10], -0.0732; in experiment [11], 0.0171. For the same molecule, the Bliss excess in [12] is 0.0752; in the experiment on NCI-H2818 (Mesothelioma) it was -0.0498; with ES8 (Ewing's Sarcoma), -0.185; in the experiment on ES1 (Ewing's Sarcoma), -0.0255; in [13] it was -0.0453; in experiment [14] it was -0.0207. The Bliss excess in experiment [15] was -0.0846; with WM-115 (Melanoma), -0.0731.

For the molecule `Cc1c2c(nn1C)CSCc1cc(n(C)n1)CSc1cc(c3ccccc3c1)OCCCc1c(C(=O)O)n(C)c3c-2c(Cl)ccc13` [AZD5991] + C1CN(CCC1(C(=O)N[C@@H](CCO)C2=CC=C(C=C2)Cl)N)C3=NC=NC4=C3C=CN4 [Capivasertib] (first compound max 1 µM, 7x7, partner max 3 µM), the Bliss excess in the experiment with U251 (Low Grade Glioma) was 0.0231; in [1] it was -0.0113; in experiment [2], 0.0226; in experiment [3], 0.0447; in [4], 0.0484; in experiment [5] it was 0.0067. Besides, the Bliss excess in experiment [6] was 0.039; in experiment [7], 0.0152; in [8] it was -0.0244; in [9], -0.0074; in [10], -0.0315; in experiment [11], 0.0425. Further, the Bliss excess is 0.0462 in experiment [12]; 0.0054 in the experiment on NCI-H2818 (Mesothelioma); 0.0627 in the experiment with ES8 (Ewing's Sarcoma); 0.0708 with ES1 (Ewing's Sarcoma); 0.0072 in experiment [13]; -0.0191 in experiment [14]. Also, the Bliss excess is -0.0225 in experiment [15] and 0.0165 in the experiment with WM-115 (Melanoma).

Regarding `NC1(C(=O)N[C@@H](CCO)c2ccc(Cl)cc2)CCN(c2ncnc3[nH]ccc23)CC1` [Capivasertib] + C[C@@H]1COCCN1C2=NC(=NC(=C2)C3(CC3)[S@](=N)(=O)C)C4=C5C=CNC5=NC=C4 [AZD6738] (first compound max 10 µM, 7x7, partner max 10 µM), the Bliss excess in the experiment with U251 (Low Grade Glioma) is -0.0006; in experiment [1], -0.0161; in [2], -0.0391; in [3], 0.016; in experiment [4] it was -0.0238; in experiment [5], 0.0044. Moreover, the Bliss excess in experiment [6] was 0.0043; in [7], -0.0059; in experiment [8] it was -0.035; in experiment [9] it was 0.0185; in experiment [10], -0.04; in experiment [11], -0.0156. In addition, the Bliss excess in [12] was -0.0383; in the experiment on NCI-H2818 (Mesothelioma) it was -0.0315; in the experiment on ES8 (Ewing's Sarcoma), 0.0038; in the experiment with ES1 (Ewing's Sarcoma) it was -0.0448; in experiment [13], -0.0178; in experiment [14], -0.0862. Also, the results for the Bliss excess (in experiment [15]; with WM-115 (Melanoma)) were -0.0045 and -0.0502, respectively.

Consider `CC1(C)CCC(CN2CCN(c3ccc(C(=O)NS(=O)(=O)c4ccc(NCC5CCOCC5)c([N+](=O)[O-])c4)c(Oc4cnc5[nH]ccc5c4)c3)CC2)=C(c2ccc(Cl)cc2)C1` [Venetoclax] + C1CN(CCC1(C(=O)N[C@@H](CCO)C2=CC=C(C=C2)Cl)N)C3=NC=NC4=C3C=CN4 [Capivasertib] (first compound max 1 µM, 7x7, partner max 3 µM), for which the Bliss excess was -0.0133 in the experiment with U251 (Low Grade Glioma); 0.0937 in experiment [1]; -0.0288 in experiment [2]; -0.0142 in experiment [3]; 0.0512 in experiment [4]; 0.0015 in experiment [5]. Moreover, the Bliss excess in experiment [6] is 0.0039; in experiment [7] it was -0.0178; in experiment [8], -0.0382; in [9], -0.0371; in experiment [10] it was 0.0198; in experiment [11], -0.0161. Moreover, the Bliss excess is -0.0902 in experiment [12]; -0.0628 in the experiment on NCI-H2818 (Mesothelioma); -0.0933 with ES8 (Ewing's Sarcoma); 0.0278 in the experiment with ES1 (Ewing's Sarcoma); -0.0234 in experiment [13]; -0.0256 in experiment [14]. Besides, the values for the Bliss excess (in experiment [15]; in the experiment with WM-115 (Melanoma)) were -0.0918 and -0.0785, respectively.

As to `CN(CCO)CC[C@H](CSc1ccccc1)Nc1ccc(S(=O)(=O)NC(=O)c2ccc(N3CCC([C@@H](O)c4ccccc4-c4ccc(Cl)cc4)CC3)cc2)cc1S(=O)(=O)C(F)(F)F` [AZD4320] + C=CCn1c(=O)c2cnc(Nc3ccc(N4CCN(C)CC4)cc3)nc2n1-c1cccc(C(C)(C)O)n1 [AZD1775] (first compound max 1 µM, partner max 1 µM), the Bliss excess in the experiment with U251 (Low Grade Glioma) was -0.0676; in experiment [1], 0.0417; in experiment [2], -0.029; in experiment [3], 0.254; in experiment [4], -0.0041; in [5], 0.0022. The Bliss excess in experiment [6] is 0.0899; in [7], 0.0594; in [8], -0.0585; in [9], 0.0394; in experiment [10], 0.0574; in experiment [11] it was -0.0494. Besides, the Bliss excess in experiment [12] was 0.0582; in the experiment on NCI-H2818 (Mesothelioma), -0.0586; in the experiment with ES8 (Ewing's Sarcoma), 0.0959; in the experiment on ES1 (Ewing's Sarcoma), 0.0958; in experiment [13], 0.0886; in experiment [14], -0.0063. For the same molecule, the results for the Bliss excess (in experiment [15]; in the experiment on WM-115 (Melanoma)) were 0.0017 and 0.0052, respectively.

As to `CC1(C)CCC(CN2CCN(c3ccc(C(=O)NS(=O)(=O)c4ccc(NCC5CCOCC5)c([N+](=O)[O-])c4)c(Oc4cnc5[nH]ccc5c4)c3)CC2)=C(c2ccc(Cl)cc2)C1` [Venetoclax] + C[C@@H]1COCCN1C2=NC(=NC(=C2)C3(CC3)[S@](=N)(=O)C)C4=C5C=CNC5=NC=C4 [AZD6738] (first compound max 1 µM, 7x7, partner max 10 µM), the Bliss excess in the experiment with U251 (Low Grade Glioma) was -0.0405; in experiment [1] it was -0.0319; in experiment [2], -0.032; in experiment [3] it was -0.0139; in experiment [4], 0.0449; in [5], -0.0088. Also, the Bliss excess in experiment [6] was 0.0418; in experiment [7], 0.028; in experiment [8], -0.2; in [9] it was 0.0144; in [10], -0.0656; in [11], 0.0094. Also, the Bliss excess in experiment [12] was -0.0039; in the experiment on NCI-H2818 (Mesothelioma) it was -0.0458; in the experiment with ES8 (Ewing's Sarcoma), 0.004; in the experiment on ES1 (Ewing's Sarcoma) it was -0.0268; in experiment [13] it was -0.0327; in [14], -0.003. For the same molecule, the Bliss excess in [15] was -0.0176; in the experiment on WM-115 (Melanoma) it was -0.119.
